# Reference: patent US20050060764A1, “Mouse model for bone metabolism” (priority 2003, published 2005)
# Strand notation (5' to 3'): a small letter for the sugar, then the base; units joined by * are phosphorothioate-linked, units joined directly phosphodiester-linked; [ ] holds rarer units or linkages, { } end groups; capitals alone tell only the bases. e = 2'-O-(2-methoxyethyl) (MOE); [5mC] = 5-methylcytosine; d = 2'-deoxy (DNA)
# Experiments:
# mouse RANKL mRNA [1] = experiment: Antisense inhibition of mouse RANKL mRNA levels in C2C12 cells, quantitative real-time PCR (Table 2); type: cell-based; design: concentration or dose not given beside the values; settings: averages from three experiments
# Procedure: (§1) Cells were seeded into 24-well plates (Falcon-353047 at a density of ˜10,000 cells/cm^2 for use in antisense oligonucleotide transfection.
# (§2) Cells are treated and data are obtained in triplicate. […] Cells were harvested 16-24 hours after oligonucleotide treatment.
# PCR reagents were obtained from Invitrogen Corporation, (Carlsbad, Calif.).
# (§3) Probes and primers to mouse RANKL were designed to hybridize to a mouse RANKL sequence, using published sequence information (GenBank accession number AF013170.1, incorporated herein as SEQ ID NO:ll). For mouse RANKL the PCR primers were: • forward primer: […] (SEQ ID NO:12) • reverse primer: […] (SEQ ID NO: 13) and • the PCR probe was: FAM-[…]-TAMRA (SEQ ID NO: 14) where FAM is the fluorescent reporter dye and TAMRA is the quencher dye. For mouse GAPDH the PCR primers were: • forward primer: […](SEQ ID NO:15) • reverse primer: […](SEQ ID NO:16) and the • PCR probe was: 5′ JOE-[…]-TAMRA 3′ (SEQ ID NO: 17) where JOE is the fluorescent reporter dye and TAMRA is the quencher dye.
# In accordance with the present invention, a second series of antisense compounds was designed to target different regions of the mouse RANKL RNA, using published sequences (GenBank accession number AF013170.1, incorporated herein as SEQ ID NO: 11). […] All cytidine residues are 5-methylcytidines. […] If present “N.D.” indicates “no data”.
# rat RANKL mRNA = experiment: Antisense inhibition of rat RANKL mRNA levels in UMR-106 cells, quantitative real-time PCR (Table 3); type: cell-based; design: concentration or dose not given beside the values; settings: averages from three experiments
# Method in brief: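 UMR-106 cells transfected with antisense oligonucleotides (5-methylcytidine throughout) in triplicate, harvested 16-24 h after treatment. RANKL mRNA quantified by real-time RT-PCR with a FAM/TAMRA probe, using rat GAPDH (JOE/TAMRA probe) as the reference.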
# mouse RANKL mRNA [2] = experiment: Antisense inhibition of mouse RANKL mRNA in C2C12 cells: dose response (Table 5); type: cell-based; settings: relative to untreated control
# Procedure: as §1, §2, §3
# In accordance with the present invention, a subset of the antisense oligonucleotides in Example 16 was further investigated in dose-response studies. The oligonucleotides used in this investigation were ISIS 180812 (SEQ ID NO: 178), ISIS 180814 (SEQ ID NO: 180), ISIS 180819 (SEQ ID NO: 185), ISIS 180828 (SEQ ID NO: 194) and the control oligonucleotide ISIS 101757 ([…], SEQ ID NO: 355). […] All cytidine residues are 5-methylcytidines.
# C2C12 cells were treated with the oligonucleotides at 10, 50, 75, 100, and 150 nM as described in other examples herein. […] The results are expressed as percent inhibition relative to the untreated control. The data, shown in Table 5, are averages from two experiments and illustrate the oligonucleotides of the present invention are able to downregulate RANKL mRNA expression in a dose-dependent manner.
# [3] = Serum calcium concentration 24 hours after PTH infusion in mice treated with RANKL antisense oligonucleotides (Table 10); type: in vivo, mouse; settings: mice
# Procedure: In accordance with the present invention, the effect of antisense oligonucleotide inhibition on PTH-induced serum calcium concentration increase was measured in mice. The serum calcium concentration in mice was measured as a function of antisense oligonucleotide dose. Calcitonin, a known bone antiresorptive agent, was used as a control for antiresorptive activity.
# Female Swiss-Webster (5-8 wks old) mice fed a low-calcium diet were dosed subcutaneously for two weeks with either the oligonucleotides ISIS 180819 (SEQ ID NO: 185) or 180814 (SEQ ID NO: 180) at concentrations of 5 mg/kg, 15 mg/kg, 30 mg/kg, or 40 mg/kg. A control group of mice were treated with calcitonin (400 ng) plus PTH (1 ug/100 g/6 hr), PTH alone (1 ug/100 g/6 hr) or saline. Treatment with oligonucleotides was followed with infusion of PTH by subcutaneously implanted mini-pumps at a dose of 1 ug/100 g/6 hr. After 24 hours of PTH infusion (total PTH delivery of 4 ug/100 g), the mice were sacrificed and the serum calcium concentration was measured with the Sigma Diagnostics Calcium Kit (Sigma-Aldrich). The data, summarized in Table 10 are averages from eight mice. Percent mRNA inhibition is normalized to PTH alone treatment.
substance,measurement,setting,value
180809 (antisense eG*eG*eA*eT*eT*dT*dT*dG*dA*dT*dG*d[5mC]*dT*dG*dG*eT*eT*eT*eT*eA) [compound 180809],% INHIB (inhibition of mouse RANKL mRNA levels),mouse RANKL mRNA [1],53%
same,% INHIB (inhibition of rat RANKL mRNA levels),rat RANKL mRNA,57%
"gctcgaaagtacaggaacag (antisense eG*e[5mC]*eT*e[5mC]*eG*dA*dA*dA*dG*dT*dA*d[5mC]*dA*dG*dG*eA*eA*e[5mC]*eA*eG) [ISIS 180802, 2′-MOE gapmer targeted to mouse and rat RANKL]",% INHIB (inhibition of mouse RANKL mRNA levels),mouse RANKL mRNA [1],at least 40%
same,% INHIB (inhibition of rat RANKL mRNA levels),rat RANKL mRNA,at least 40%
"ggattttgatgctggtttta (antisense eG*eG*eA*eT*eT*dT*dT*dG*dA*dT*dG*d[5mC]*dT*dG*dG*eT*eT*eT*eT*eA) [ISIS 180809, 2′-MOE gapmer targeted to mouse and rat RANKL]",% INHIB (inhibition of mouse RANKL mRNA levels),mouse RANKL mRNA [1],at least 40%
same,% INHIB (inhibition of rat RANKL mRNA levels),rat RANKL mRNA,at least 40%
180814 (antisense eG*eT*e[5mC]*eT*eT*dA*d[5mC]*dA*d[5mC]*dA*dT*dG*dT*dA*dT*eA*eG*eA*e[5mC]*eA) [compound 180814],% INHIB (inhibition of mouse RANKL mRNA levels),mouse RANKL mRNA [1],66%
same,% Inhibition of RANKL mRNA,mouse RANKL mRNA [2]; 10 nM oligonucleotide,12%
same,% Inhibition of RANKL mRNA,mouse RANKL mRNA [2]; 50 nM oligonucleotide,14%
same,% Inhibition of RANKL mRNA,mouse RANKL mRNA [2]; 75 nM oligonucleotide,61%
same,% Inhibition of RANKL mRNA,mouse RANKL mRNA [2]; 100 nM oligonucleotide,70%
same,% Inhibition of RANKL mRNA,mouse RANKL mRNA [2]; 150 nM oligonucleotide,81%
same,PTH-induced increase in serum calcium concentration,"[3]; s.c. two weeks 5, 15, 30 or 40 mg/kg, 24 hours PTH infusion",lessen the PTH-induced increase in serum calcium concentration
180802 (antisense eG*e[5mC]*eT*e[5mC]*eG*dA*dA*dA*dG*dT*dA*d[5mC]*dA*dG*dG*eA*eA*e[5mC]*eA*eG) [compound 180802],% INHIB (inhibition of mouse RANKL mRNA levels),mouse RANKL mRNA [1],79%
same,% INHIB (inhibition of rat RANKL mRNA levels),rat RANKL mRNA,40%
180828 (antisense eT*eT*eT*eA*eT*dT*dT*dT*dG*d[5mC]*dT*dT*dG*d[5mC]*dA*eT*eA*eG*eT*eT) [compound 180828],% INHIB (inhibition of mouse RANKL mRNA levels),mouse RANKL mRNA [1],44%
same,% Inhibition of RANKL mRNA,mouse RANKL mRNA [2]; 10 nM oligonucleotide,31%
same,% Inhibition of RANKL mRNA,mouse RANKL mRNA [2]; 50 nM oligonucleotide,43%
same,% Inhibition of RANKL mRNA,mouse RANKL mRNA [2]; 75 nM oligonucleotide,23%
same,% Inhibition of RANKL mRNA,mouse RANKL mRNA [2]; 100 nM oligonucleotide,31%
same,% Inhibition of RANKL mRNA,mouse RANKL mRNA [2]; 150 nM oligonucleotide,40%
"agcaaatgttggcgtacagg (antisense eA*eG*e[5mC]*eA*eA*dA*dT*dG*dT*dT*dG*dG*d[5mC]*dG*dT*eA*e[5mC]*eA*eG*eG) [ISIS 180807, 2′-MOE gapmer targeted to mouse and rat RANKL]",% INHIB (inhibition of mouse RANKL mRNA levels),mouse RANKL mRNA [1],at least 40%
same,% INHIB (inhibition of rat RANKL mRNA levels),rat RANKL mRNA,at least 40%
101757 (antisense eA*eG*eG*eT*eG*d[5mC]*dT*d[5mC]*dA*dG*dG*dA*d[5mC]*dT*d[5mC]*e[5mC]*eA*eT*eT*eT) [compound 101757],% Inhibition of RANKL mRNA,mouse RANKL mRNA [2]; 50 nM oligonucleotide,17%
same,% Inhibition of RANKL mRNA,mouse RANKL mRNA [2]; 100 nM oligonucleotide,13%
180807 (antisense eA*eG*e[5mC]*eA*eA*dA*dT*dG*dT*dT*dG*dG*d[5mC]*dG*dT*eA*e[5mC]*eA*eG*eG) [compound 180807],% INHIB (inhibition of mouse RANKL mRNA levels),mouse RANKL mRNA [1],74%
same,% INHIB (inhibition of rat RANKL mRNA levels),rat RANKL mRNA,48%
calcitonin [reference compound],inhibition of PTH-induced serum calcium concentration,"[3]; PTH infusion, n=8",66 % inhibition
180812 (antisense eT*e[5mC]*e[5mC]*eG*eG*dA*dT*d[5mC]*d[5mC]*dA*dG*d[5mC]*dA*dG*dG*eG*eA*eA*eG*eG) [compound 180812],% INHIB (inhibition of mouse RANKL mRNA levels),mouse RANKL mRNA [1],47%
same,% Inhibition of RANKL mRNA,mouse RANKL mRNA [2]; 10 nM oligonucleotide,0%
same,% Inhibition of RANKL mRNA,mouse RANKL mRNA [2]; 50 nM oligonucleotide,5%
same,% Inhibition of RANKL mRNA,mouse RANKL mRNA [2]; 75 nM oligonucleotide,13%
same,% Inhibition of RANKL mRNA,mouse RANKL mRNA [2]; 100 nM oligonucleotide,20%
same,% Inhibition of RANKL mRNA,mouse RANKL mRNA [2]; 150 nM oligonucleotide,45%
"ccgccgagcagactccgcca (antisense e[5mC]*e[5mC]*eG*e[5mC]*e[5mC]*dG*dA*dG*d[5mC]*dA*dG*dA*d[5mC]*dT*d[5mC]*e[5mC]*eG*e[5mC]*e[5mC]*eA) [ISIS 180791, 2′-MOE gapmer targeted to mouse RANKL]",% INHIB (inhibition of mouse RANKL mRNA levels),mouse RANKL mRNA [1],at least 40%
180820 (antisense e[5mC]*eT*eT*eA*eT*dT*dT*dG*d[5mC]*dA*dG*dG*dT*d[5mC]*d[5mC]*e[5mC]*eA*eG*e[5mC]*eG) [compound 180820],% INHIB (inhibition of mouse RANKL mRNA levels),mouse RANKL mRNA [1],44%
180831 (antisense e[5mC]*e[5mC]*eT*eG*eA*d[5mC]*dA*dG*dA*dT*dT*dT*d[5mC]*dA*dG*eT*eA*eG*e[5mC]*e[5mC]) [compound 180831],% INHIB (inhibition of mouse RANKL mRNA levels),mouse RANKL mRNA [1],54%
180796 (antisense eT*e[5mC]*eG*eG*e[5mC]*dT*dG*dG*d[5mC]*d[5mC]*d[5mC]*dG*dG*d[5mC]*dG*e[5mC]*eA*eT*eG*eG) [compound 180796],% INHIB (inhibition of mouse RANKL mRNA levels),mouse RANKL mRNA [1],67%
"aacatggagcgggaggcggc (antisense eA*eA*e[5mC]*eA*eT*dG*dG*dA*dG*d[5mC]*dG*dG*dG*dA*dG*eG*e[5mC]*eG*eG*e[5mC]) [ISIS 180801, 2′-MOE gapmer targeted to mouse RANKL]",% INHIB (inhibition of mouse RANKL mRNA levels),mouse RANKL mRNA [1],at least 40%
"tgctccgcgatcgttctctc (antisense eT*eG*e[5mC]*eT*e[5mC]*d[5mC]*dG*d[5mC]*dG*dA*dT*d[5mC]*dG*dT*dT*e[5mC]*eT*e[5mC]*eT*e[5mC]) [ISIS 180792, 2′-MOE gapmer targeted to mouse RANKL]",% INHIB (inhibition of mouse RANKL mRNA levels),mouse RANKL mRNA [1],at least 40%
"gcatcggaatacctctccca (antisense eG*e[5mC]*eA*eT*e[5mC]*dG*dG*dA*dA*dT*dA*d[5mC]*d[5mC]*dT*d[5mC]*eT*e[5mC]*e[5mC]*e[5mC]*eA) [ISIS 180817, 2′-MOE gapmer targeted to mouse RANKL]",% INHIB (inhibition of mouse RANKL mRNA levels),mouse RANKL mRNA [1],at least 40%
180788 (antisense eG*eT*eT*e[5mC]*eA*d[5mC]*dA*dA*dA*dG*dG*dT*d[5mC]*d[5mC]*dT*eG*eG*e[5mC]*eA*eG) [compound 180788],% INHIB (inhibition of mouse RANKL mRNA levels),mouse RANKL mRNA [1],62%
"tcggctggcccggcgcatgg (antisense eT*e[5mC]*eG*eG*e[5mC]*dT*dG*dG*d[5mC]*d[5mC]*d[5mC]*dG*dG*d[5mC]*dG*e[5mC]*eA*eT*eG*eG) [ISIS 180796, 2′-MOE gapmer targeted to mouse RANKL]",% INHIB (inhibition of mouse RANKL mRNA levels),mouse RANKL mRNA [1],at least 40%
"cagttccttctgcacggccc (antisense e[5mC]*eA*eG*eT*eT*d[5mC]*d[5mC]*dT*dT*d[5mC]*dT*dG*d[5mC]*dA*d[5mC]*eG*eG*e[5mC]*e[5mC]*e[5mC]) [ISIS 180804, 2′-MOE gapmer targeted to mouse RANKL]",% INHIB (inhibition of mouse RANKL mRNA levels),mouse RANKL mRNA [1],at least 40%
"cgggaggeggcgggtggcgg (antisense e[5mC]*eG*eG*eG*eA*dG*dG*d[5mC]*dG*dG*d[5mC]*dG*dG*dG*dT*eG*eG*e[5mC]*eG*eG) [ISIS 180799, 2′-MOE gapmer targeted to mouse RANKL]",% INHIB (inhibition of mouse RANKL mRNA levels),mouse RANKL mRNA [1],at least 40%
180813 (antisense eA*eT*eG*eT*eT*d[5mC]*d[5mC]*dA*d[5mC]*dG*dA*dA*dA*dT*dG*eA*eG*eT*e[5mC]*eT) [compound 180813],% INHIB (inhibition of mouse RANKL mRNA levels),mouse RANKL mRNA [1],48%
